The source of these data is patent US10800784B2, “Nitrogen-containing heterocyclic amide compound and pharmaceutical use thereof” (Japan Tobacco Inc., priority 2018, dated 2020).

Test [1] addresses human PDHK2 (hPDHK2) (Homo sapiens (Human), UniProt Q15119). Kind of test: Inhibitory action of PDHK2 activity in vitro (residual PDH activity after PDHK reaction). In kind it is biochemical. The following applies: PDH/hPDHK2 complex solution, PDHK reaction at room temperature for 45 min, NADH absorbance at 340 nm; read-out: kPDK2 IC50. The procedure, abridged: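 Indirect assay: FLAG-tagged hPDHK2 (0.5 μg/mL) precomplexed overnight at 4 °C with PDH (0.025 U/mL), then kinase reaction with compound and ATP 45 min at room temperature, pH 7.0 MOPS buffer. Residual PDH activity measured after 90 min with pyruvate, CoA, NAD, TPP as NADH absorbance at 340 nm, corrected for compound effect on PDH-only blank.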

For test [2], the target named is human PDHK1 (hPDHK1) (Homo sapiens (Human), UniProt Q15118). Kind of test: Inhibitory action of PDHK1 activity in vitro (residual PDH activity after PDHK reaction). In kind it is biochemical. The following applies: for IC50: PDH/hPDHK1 complex solution, PDHK reaction at room temperature for 45 min, NADH absorbance at 340 nm, read-out: hPDK1 IC50; for inhibition at 0.003 µM: at 3 nmol/L, shown when IC50 value could not be calculated, read-out: hPDHK1 inhibitory rate at the lowest concentration of the test compound. The procedure, abridged:
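N-FLAG hPDHK1 (E. coli-expressed, 0.5 μg/mL) precomplexed overnight at 4 °C with porcine heart PDH (0.025 U/mL), then reacted 45 min at room temperature with compound and ATP (0.353 μmol/L as added) in MOPS pH 7.0 buffer. Residual PDH activity after 90 min with pyruvate, CoA, NAD, TPP read as NADH at 340 nm.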

Chain of human PDHK1 (hPDHK1) (Q15118 29-436): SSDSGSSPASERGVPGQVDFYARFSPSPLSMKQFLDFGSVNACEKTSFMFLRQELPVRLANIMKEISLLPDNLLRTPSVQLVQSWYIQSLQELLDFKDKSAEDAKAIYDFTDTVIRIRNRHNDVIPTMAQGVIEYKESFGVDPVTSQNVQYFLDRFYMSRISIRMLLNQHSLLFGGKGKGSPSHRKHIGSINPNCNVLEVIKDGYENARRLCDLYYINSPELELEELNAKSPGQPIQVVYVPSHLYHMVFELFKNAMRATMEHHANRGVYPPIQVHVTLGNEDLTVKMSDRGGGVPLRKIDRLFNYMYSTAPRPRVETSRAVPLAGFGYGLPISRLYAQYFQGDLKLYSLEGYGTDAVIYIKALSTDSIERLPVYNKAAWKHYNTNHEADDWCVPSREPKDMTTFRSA

Consider `C[C@H]1CN(C(=O)c2ccnc(-c3ccc(C#N)cc3)c2)Cc2cnc([C@@](C)(O)C(F)(F)F)n21` [Example 67], for which the IC50 amounted to 7 nM in test [1] and 5 nM in test [2].

On to `C[C@H]1CN(C(=O)c2cc(-c3ccc(C#N)cc3)nn2C2CC2)Cc2cnc([C@@](C)(O)C(F)(F)F)n21` [Example 35], for which the IC50 in test [1] was found to be 4 nM; in test [2] it was 3 nM.

For the compound `C[C@H]1CN(C(=O)c2cc(-c3ccc(F)cc3)nn2C)Cc2cnc([C@@](C)(O)C(F)(F)F)n21` [Example 16, (3-(4-fluorophenyl)-1-methyl-1H-pyrazol-5-yl) ((S)-5-methyl-3-((R)-1,1,1-trifluoro-2-hydroxypropan-2-yl)-5,6-dihydroimidazo[1,5-a]pyrazin-7(8H)-yl)methanone], the figures for the IC50 in test [1] and in test [2] were 7 nM and 6 nM, respectively.

As to `C[C@H]1CN(C(=O)c2nn(C)c(-c3ccc(C#N)cc3)c2Cl)Cc2cnc([C@@](C)(O)C(F)(F)F)n21` [Example 41], the half-inhibitory concentration (IC50) in test [1] and in test [2] was 6 nM each time.

For the compound `C[C@H]1CN(C(=O)c2cnc3ccc(F)cn23)Cc2cnc([C@@](C)(O)C(F)(F)F)n21` [Example 8], the IC50 in test [1] was found to be 34 nM; in test [2], 49 nM.

For `C[C@H]1CN(C(=O)c2cc(-c3ccc(F)cc3F)nn2C)Cc2cnc([C@@](C)(O)C(F)(F)F)n21` [Example 47], in test [1], the IC50 was 4 nM. In test [2], the IC50 is under 3 nM and the inhibition at 0.003 µM is 53%.

Turning to `C[C@H]1CN(C(=O)c2cc(-c3ccc(F)cc3C#N)nn2C)Cc2cnc([C@@](C)(O)C(F)(F)F)n21` [Example 61], the IC50 turned out to be 5 nM in test [1] and 3 nM in test [2].

In the case of `Cc1cc(C#N)ccc1-c1cc(C(=O)N2Cc3cnc([C@@](C)(O)C(F)(F)F)n3[C@@H](C)C2)ccn1` [Example 63], the IC50 in test [1] was determined as 7 nM; in test [2], 5 nM.

As to `C[C@H]1CN(C(=O)c2cncc(-c3ccc(F)cc3C#N)c2)Cc2cnc([C@@](C)(O)C(F)(F)F)n21` [Example 72], the IC50 came to 9 nM in test [1] and 7 nM in test [2].

As to `C[C@H]1CN(C(=O)c2c(Cl)c(-c3ccc(C#N)cc3)nn2C)Cc2cnc([C@@](C)(O)C(F)(F)F)n21` [Example 40, 4-(4-chloro-1-methyl-5-((S)-5-methyl-3-((R)-1,1,1-trifluoro-2-hydroxypropan-2-yl)-5,6,7,8-tetrahydroimidazo[1,5-a]pyrazine-7-carbonyl)-1H-pyrazol-3-yl)benzonitrile], the IC50 in test [1] worked out at 6 nM; in test [2], 5 nM.

For the compound `C[C@H]1CN(C(=O)c2ccnc(-c3ccc(F)cc3C#N)c2)Cc2cnc([C@@](C)(O)C(F)(F)F)n21` [Example 54], in test [1], the IC50 worked out at 5 nM. Besides, in test [2], the IC50 is under 3 nM and the inhibition at 0.003 µM was 53%.

Turning to `C[C@H]1CN(C(=O)c2ncncc2-c2ccc(F)cc2)Cc2cnc([C@@](C)(O)C(F)(F)F)n21` [Example 97], the IC50 was 26 nM in test [1] and 63 nM in test [2].

Take `C[C@H]1CN(C(=O)c2cc(C3CC3)n(CC(F)(F)F)n2)Cc2cnc([C@@](C)(O)C(F)(F)F)n21` [Example 37]: the IC50 in test [1] worked out at 8 nM; in test [2], 3 nM.

As for `C[C@H]1CN(C(=O)c2cc(C3CCOCC3)nn2C)Cc2cnc([C@@](C)(O)C(F)(F)F)n21` [Example 20], the IC50 in test [1] was 12 nM; in test [2], 8 nM.

Regarding `C[C@H]1CN(C(=O)c2ccc(=O)n(-c3ccc(F)cc3)c2)Cc2cnc([C@@](C)(O)C(F)(F)F)n21` [Example 57], the IC50 in test [1] was 10 nM; in test [2], 11 nM.

`C[C@H]1CN(C(=O)c2cncc(-c3ccc(F)cc3)c2)Cc2cnc([C@@](C)(O)C(F)(F)F)n21` [Example 80]: the results for the IC50 in test [1] and in test [2] were 6 nM and 3 nM, respectively.

For the compound `Cc1c(C(=O)N2Cc3cnc([C@@](C)(O)C(F)(F)F)n3[C@@H](C)C2)ccnc1-c1ccc(C#N)cc1` [Example 65], the IC50 in test [1] is 5 nM; in test [2], 4 nM.
